Source: patent US20150073038A1 (Marina Biotech, Inc., priority 2009, published 2015)

Assays:
[1] = test system: ApoB in Hep3B cells; test: In vitro gene silencing activity, formulation with UsiRNA against ApoB in Hep3B cells, quantitative RT-PCR; type: cell-based; conditions: UsiRNA DX10008, Hep3B, 24 h
Experimental: The methodology for determining the in vitro gene silencing activity of an activity-generating delivery molecule was as follows: Hep3B cells were transfected in triplicate, 96-well format with a formulation of the activity-generating delivery molecule and a UsiRNA against ApoB. After 24 h, cellular RNA was prepared and evaluated by quantitative RT-PCR for target ApoB and the normalizer 36B4 or GAPDH expression levels.
The in vitro activity was generated with a UsiRNA against ApoB in Hep3B cells.

[2] = test system: Factor VII mRNA; test: In vivo gene knockdown in Balb/c mice, tail-vein injection of formulation with UsiRNA; design: species or system mouse; conditions: DMPE-PEG2k 2 mole %, UsiRNA against Factor VII mRNA
Excerpt: In vivo gene knockdown activity was generated in Balb/c mice administered by tail-vein injection with a formulation including the activity-generating delivery molecule and a UsiRNA against Factor VII mRNA.

[3] = TNS dye assay for pKa; type: physicochemical; conditions: pH 3.0 to 11.0, 30 min at 37° C.; for pKa as measured by TNS dye assay: liposome test sample; for pKa: liposomes of the lipid with TNS dye in universal buffer, pH 3, liposome test sample, read-out: pKa as measured by TNS dye assay
Experimental: To measure pH responsive fluorescence, a TNS/Liposome reaction mixture was prepared as follows: 16 μL of TNS at 1 mg/mL (dissolved in 20% DMF), 160 μL of liposome test sample at 1 mM and 3824 μL of H20. Briefly, in a Costar 96 well plate; 100 μL/well of 2× universal buffer was added (50 mM Citrate; 40 mM sodium phosphate; 40 mM ammonium acetate; 300 mM NaCl, the 2× buffer was titrated to different pHs, at 0.5 pH increments from pH 3.0 to pH 11.0 using NaOH or HCl). To each well containing the 100 of universal buffer, 100 μL of the TNS/Liposome reaction mixture is then added to achieve a final volume of 200 μL, a TNS concentration of 5.92 μM and a final lipid concentration of 20 μM per well. After 30 min at 37° C. the fluorescence was read at an excitation wavelength of 322 nm and emission wavelength of 431 nm. The pKa was determined at the pH corresponding to the midpoint between the maximum and the minimum fluorescence intensity, utilizing sigmoidal fit software.
TNS dye (2,6-TNS (2-(p-toluidinyl)naphthalene-6-sulfonic acid, sodium salt; Invitrogen T53; MW 335.4).

[4] = test system: Factor VII; test: In vivo gene-silencing dose-response, UsiRNA against Factor VII in formulation, tail-vein injection; design: species or system mouse; conditions: normal Balb/c mice, single tail-vein IV injection, serum F-VII at 48 hr post dose; dose as active UsiRNA per kg; formulated with cholesterol, C18:2-DAB-C16, DSPE-PEG2k 51:31:17:1 mole %
Experimental: In FIG. 1 is shown a chart of the gene-silencing dose-response in vivo mouse for a UsiRNA against Factor VII administered by tail-vein injection in a formulation including the activity-generating delivery molecule C18:2-DAP(N,N-diMe)-C18:2. The calculated ED50 was 30 μg/kg. The x-axis of FIG. 1 refers to mgA/kg which is by pharmaceutical convention the mg of active UsiRNA per kg body weight. Here it refers to the fraction of UsiRNA that is duplexed, and encapsulated or carried by the activity-generating delivery molecules.
Animals were each administered a single tail-vein IV injection, and sacrificed at 48 hr post dose for analysis of serum F-VII.
The activity-generating molecule C18:2-DAP(N,N-diMe)-C18:2 was formulated with cholesterol, a second activity-generating molecule C18:2-DAB-C16, and DSPE-PEG2k at concentrations of 51:31:17:1 mole %, respectively.

[5] = DSC measurement of 2nd melting behavior; type: physicochemical; conditions: heat/cool/heat cycle
Experimental: The 2nd melting behavior of activity-generating delivery molecules was assessed on a TA Instruments Q200 Differential Scanning calorimeter in a heat/cool/heat cycle by weighing 0.5 to 1.5 mg of the powder into an aluminum pan and heating to 175° C. at 20° C./min., cooling to −50° C. at 10° C./min., and heating to 200° C. at 20° C./min.
Without intending to be bound by any particular theory, the melting behavior of an activity-generating delivery molecule may relate to its ability to form lamellar, bilayer, or other ordered structures which can be useful for carrying an active agent to interact with, and enter a cellular compartment to generate pharmacological or biological activity. […] A substance having less ordered structures may provide greater membrane fusion ability which can be needed for delivery of the active agent to a cell. Thus, differential scanning calorimetry can be used to distinguish the properties of compounds with certain significant thermotropic phases or transitions from compounds with different properties and less significant thermotropic phases or transitions.

[6] = delivery molecule 25.00 mole %, CHOL 75.00 mole %
[7] = delivery molecule 25.00 mole %, DOPE 75.00 mole %
[8] = delivery molecule 33.33 mole %, CHOL 66.66 mole %
[9] = delivery molecule 33.33 mole %, DOPE 66.66 mole %
[10] = delivery molecule 50.00 mole %, CHOL 50.00 mole %
[11] = delivery molecule 50.00 mole %, DOPE 50.00 mole %
[12] = delivery molecule 66.66 mole %, CHOL 33.33 mole %
[13] = delivery molecule 66.66 mole %, DOPE 33.33 mole %
[14] = delivery molecule 75.00 mole %, CHOL 25.00 mole %
[15] = delivery molecule 75.00 mole %, DOPE 25.00 mole %

Row | pKa as measured by TNS dye assay [3] | pKa [3] | SMILES | In vitro Gene Knockdown % [1, 6] [%] | In vitro Gene Knockdown % [1, 7] [%] | In vitro Gene Knockdown % [1, 8] [%] | In vitro Gene Knockdown % [1, 9] [%] | In vitro Gene Knockdown % [1, 10] [%] | In vitro Gene Knockdown % [1, 11] [%] | In vitro Gene Knockdown % [1, 12] [%] | In vitro Gene Knockdown % [1, 13] [%] | In vitro Gene Knockdown % [1, 14] [%] | In vitro Gene Knockdown % [1, 15] [%] | In vivo Gene Knockdown % ([2]; delivery molecule 49 mole %, CHOL 49 mole %) [%] | In vivo Gene Knockdown % ([2]; delivery molecule 65.3 mole %, CHOL 32.7 mole %) [%] | calculated ED50, gene silencing in vivo [4] [mg/kg] | 2nd melting behavior, thermal transitions by differential scanning calorimetry [5]
1 |  | 4.9 | CCCCC/C=C\C/C=C\CCCCCCCCNC(=O)C(N)NC(=O)CCCCCCC/C=C\C/C=C\CCCCC (stereo not drawn) [C18:2-DAA-C18:2, (9Z,12Z)—N-(1-amino-2-((9Z,12Z)-octadeca-9,12-dien-1-ylamino)-2-oxoethyl) octadeca-9,12-dienamide] |  |  |  |  |  |  |  |  |  |  |  |  |  | 
2 |  | 5.8 | CCCCC/C=C\C/C=C\CCCCCCCCNC(=O)C(CN(C)C)NC(=O)CCCCCCC/C=C\C/C=C\CCCCC (stereo not drawn) | 6 |  |  | 86 | 19 | 87 | 19 | 81 |  | 18 |  |  | 0.03 | 
3 |  | 7.6 | CCCCC/C=C\C/C=C\CCCCCCCCNC(=O)C(CN)NC(=O)CCCCCCC/C=C\C/C=C\CCCCC (stereo not drawn) [C18:2-DAP-C18:2, (9Z,12Z)—N-(3-amino-1-((9Z,12Z)-octadeca-9,12-dien-1-ylamino)-1-oxopropan-2-yl)octadeca-9,12-dienamide] |  |  |  |  |  |  |  |  |  |  |  |  |  | 

Further lines, the molecule ahead of its results:

Row | SMILES | pKa as measured by TNS dye assay [3] | pKa [3] | In vitro Gene Knockdown % [1, 6] [%] | In vitro Gene Knockdown % [1, 7] [%] | In vitro Gene Knockdown % [1, 8] [%] | In vitro Gene Knockdown % [1, 9] [%] | In vitro Gene Knockdown % [1, 10] [%] | In vitro Gene Knockdown % [1, 11] [%] | In vitro Gene Knockdown % [1, 12] [%] | In vitro Gene Knockdown % [1, 13] [%] | In vitro Gene Knockdown % [1, 14] [%] | In vitro Gene Knockdown % [1, 15] [%] | In vivo Gene Knockdown % ([2]; delivery molecule 49 mole %, CHOL 49 mole %) [%] | In vivo Gene Knockdown % ([2]; delivery molecule 65.3 mole %, CHOL 32.7 mole %) [%] | calculated ED50, gene silencing in vivo [4] [mg/kg] | 2nd melting behavior, thermal transitions by differential scanning calorimetry [5]
4 | CCCCC/C=C\C/C=C\CCCCCCCC(=O)NC(CN)C(=O)NCCCCCCCC/C=C\CCCCCCCC (stereo not drawn) [C18:2-Dap(NH3 + Cl—)-C18:1, (9Z,12Z)—N-(3-amino-1-((Z)-octadec-9-en-1-ylamino)-1-oxopropan-2-yl)octadeca-9,12-dienamide] |  |  | 64 | 85 | 62 | 83 | 56 | 83 | 61 | 69 | 52 | 48 |  |  |  | 
5 | CCCCC/C=C\C/C=C\CCCCCCCCNC(=O)C1CC(N(C)C)CN1C(=O)CCCCCCC/C=C\C/C=C\CCCCC (stereo not drawn) [C18:2-aminoPro(N—Me,N—Me)-C18:2] | 6.6 |  | 79 | 66 | 72 | 74 | 62 | 82 | 53 | 73 | 59 | 68 | 68 | 48 |  | 
6 | CCCCCCCC/C=C\CCCCCCCCNC(=O)C(CN)NC(=O)CCCCCCC/C=C\CCCCCCCC (stereo not drawn) [C18:1-DAP(NH3 + Cl—)-C18:1, N-(3-amino-1-((Z)-octadec-9-en-1-ylamino)-1-oxopropan-2-yl)oleamide] |  | 6 | 83 | 81 | 80 | 83 | 73 | 82 | 76 | 72 | 79 | 77 |  |  |  | 
7 | CCCCCCCCCCCCCCCCCCNC(=O)C(CCNC(=N)N)NC(=O)CCCCCCCCCCCCCCCCC (stereo not drawn) [CH3(CH2)16(CO)-norArg-NH(CH2)17CH3, reference compound] |  |  |  |  |  |  |  |  |  |  |  |  |  |  |  | presence of significant thermal or melting transitions
8 | CCCCC/C=C\C/C=C\CCCCCCCCNC(=O)C(CCN)NC(=O)CCCCCCC/C=C\C/C=C\CCCCC (stereo not drawn) [C(18:2)oleoyl-DAB-C(18:2)alkenylamino, (9Z,12Z)—N-(4-amino-1-((9Z,12Z)-octadcca-9,12-dien-1-ylamino)-1-oxobutan-2-yl) octadeca-9,12-dienamide] |  |  |  |  |  |  |  |  |  |  |  |  |  |  |  | complete lack of thermal transition peaks
9 | CCCCCC=CCC=CCCCCCCCC(=O)NC(CN(C)C)C(=O)NCCCCCCCCC=CCCCCCCCC (stereo not drawn) [C18:2-DAP(Me,Me)-C18:1] | 5.3 |  | 90 | 86 | 91 | 87 | 88 | 84 | 91 | 85 |  | 84 |  |  |  | 
